Where two headings read alike, the source gives them in different places.
Columns and labels:
esterase enzyme [1] = experiment: Effect of solutions (solvents) on enzyme stability (24 hours incubation); format: biochemical, microflora of Ac1göl (Aci Lake); details: for Effect of solutions on stability, Activity (%) 15% Solution: enzyme incubated 24 hours in buffer containing 15% solution; for Effect of solutions on stability, Activity (%) 30% Solution: enzyme incubated 24 hours in buffer containing 30% solution
Experimental: (§1) 6. […] The final concentration of the enzyme and substrate have been 1 μM and 1 mM respectively and absorbance measurements have been taken at 410 nm. The activity has been calculated by means of the below formula and one unit of activity has been defined as the enzyme amount which produces 1 μmol product in 1 minute.
(§2) Activity (U/L)=[(ΔAbs/t)/(ε*d)]*106*Vt/Vs • ΔAbs=Absorbance change; t=time (minute); ε=extinction coefficient (M−1 cm−1); d=light path (cm); Vt=total reaction volume; Vs=enzyme volume used in reaction.
(§3) Additionally, the effect of different solutions (hexane, chloroform, acetone, dimethyl formamide (DMF), dimethyl sulphoxide (DMSO), 2-propanol, butanol, 1-propanol, ethanol, methanol and glycerol) on the activity and stability of the enzyme have been measured. In the activity tests, 10% solution has been added into the reaction and in the stability tests the enzyme has been incubated for 24 hours in a buffer solution containing 15% and 30% solution.

esterase enzyme [2] = experiment: Effect of solutions (solvents) on enzyme activity; format: biochemical, microflora of Ac1göl (Aci Lake); details: for Effect of solutions on activity, Activity (%): 10% solution added into the reaction
Experimental: as §1, §2, §3

esterase enzyme [3] = experiment: Effect of metals on enzyme activity; format: biochemical, microflora of Ac1göl (Aci Lake); details: for Metal tolerance, This study: the enzyme of the invention in presence of metal ion
[4] = test system: heavy metal-resistant, thermophilic esterase from a Red Sea Brine Pool; details: literature enzyme in presence of metal ion; cited from earlier work
[5] = test system: Salt-Tolerant Esterase from the Deep-Sea Sediment of the South China Sea; details: literature enzyme in presence of metal ion; cited from earlier work
[6] = test system: thermophilic and halophilic esterase from Janibacter sp. R02; details: literature enzyme in presence of metal ion; cited from earlier work
[7] = test system: new true lipase isolated through metagenomic approach; details: literature enzyme in presence of metal ion; cited from earlier work
esterase enzyme [8] = experiment: Effects of inhibitors and detergents on enzyme activity; format: biochemical, microflora of Ac1göl (Aci Lake)

CC(C)O [2-Propanol, 2-propanol]
Effect of solutions on stability, Activity (%) 15% Solution (esterase enzyme [1]): 104.3 ± 1.2% | Effect of solutions on stability, Activity (%) 30% Solution (esterase enzyme [1]): 62.3 ± 4.3% | Effect of solutions on activity, Activity (%) (esterase enzyme [2]): 21.4 ± 1.6%

[Ca+2].[Cl-].[Cl-] [CaCl2]
Activity (%) (1 mM metal) (esterase enzyme [3]; 1 mM metal): 130.2 ± 1.7% | Activity (%) (5 mM metal) (esterase enzyme [3]; 5 mM metal): 105.1 ± 1.4%

[Mn+2] [Mn^2+]
Metal tolerance, Mohamed et al, 2013 [4]: 112 | Metal tolerance, Zhang et al, 2017 [5]: 76 | Metal tolerance, Castilla et al, 2017 [6]: 75 | Metal tolerance, Glogauer et al, 2011 [7]: 47 | Metal tolerance, This study (esterase enzyme [3]): 130

[Cl-].[Cl-].[Mg+2] [MgCl2]
Activity (%) (1 mM metal) (esterase enzyme [3]; 1 mM metal): 130.2 ± 0.6% | Activity (%) (5 mM metal) (esterase enzyme [3]; 5 mM metal): 104.6 ± 3%

OCC(O)CO [Glycerol, glycerol]
Effect of solutions on stability, Activity (%) 15% Solution (esterase enzyme [1]): 113.3 ± 1.8% | Effect of solutions on stability, Activity (%) 30% Solution (esterase enzyme [1]): 106.9 ± 3.1% | Effect of solutions on activity, Activity (%) (esterase enzyme [2]): 104.2 ± 6.2% | increase of activity (esterase enzyme [2]; in the presence of 10% solvents): 4%

O=S(=O)([O-])[O-].[Cu+2] [CuSO4]
Activity (%) (1 mM metal) (esterase enzyme [3]; 1 mM metal): 117.5 ± 5% | Activity (%) (5 mM metal) (esterase enzyme [3]; 5 mM metal): 1.4 ± 1.1%

O=S(=O)([O-])[O-].[Zn+2] [ZnSO4]
Activity (%) (1 mM metal) (esterase enzyme [3]; 1 mM metal): 6.1 ± 3.1% | Activity (%) (5 mM metal) (esterase enzyme [3]; 5 mM metal): 1.3 ± 1.2%

CN(C)C=O [DMF, dimethyl formamide]
Effect of solutions on stability, Activity (%) 15% Solution (esterase enzyme [1]): 121.3 ± 1.6% | Effect of solutions on stability, Activity (%) 30% Solution (esterase enzyme [1]): 105.3 ± 1.6% | Effect of solutions on activity, Activity (%) (esterase enzyme [2]): 33.2 ± 7.0%

O=[N+]([O-])[O-].[Ag+] [AgNO3]
Activity (%) (1 mM metal) (esterase enzyme [3]; 1 mM metal): 31.6 ± 6.5% | Activity (%) (5 mM metal) (esterase enzyme [3]; 5 mM metal): 0.0%

O[C@H](CS)[C@H](O)CS (racemic) [DTT, dithiothreitol]
Activity (%) (1 mM inh.) (esterase enzyme [8]; 1 mM inh.): 36.7 ± 2.4% | Activity (%) (5 mM inh.) (esterase enzyme [8]; 5 mM inh.): 25.1 ± 0.8%

[K+] [K^+]
Metal tolerance, Zhang et al, 2017 [5]: 108 | Metal tolerance, Castilla et al, 2017 [6]: 90 | Metal tolerance, Glogauer et al, 2011 [7]: 122 | Metal tolerance, This study (esterase enzyme [3]): 128

[Zn+2] [Zn^2+]
Metal tolerance, Mohamed et al, 2013 [4]: 85 | Metal tolerance, Zhang et al, 2017 [5]: 25 | Metal tolerance, Castilla et al, 2017 [6]: 160 | Metal tolerance, Glogauer et al, 2011 [7]: 45 | Metal tolerance, This study (esterase enzyme [3]): 6

O=S(=O)([O-])[O-].[Fe+2] [FeSO4]
Activity (%) (1 mM metal) (esterase enzyme [3]; 1 mM metal): 115.7 ± 2.3% | Activity (%) (5 mM metal) (esterase enzyme [3]; 5 mM metal): 0.0%

[Ni+2] [Ni^2+]
Metal tolerance, Zhang et al, 2017 [5]: 68 | Metal tolerance, Castilla et al, 2017 [6]: 75 | Metal tolerance, Glogauer et al, 2011 [7]: 66 | Metal tolerance, This study (esterase enzyme [3]): 110

CCO [Ethanol, ethanol]
Effect of solutions on stability, Activity (%) 15% Solution (esterase enzyme [1]): 105.9 ± 4.7% | Effect of solutions on stability, Activity (%) 30% Solution (esterase enzyme [1]): 98.2 ± 0.5% | Effect of solutions on activity, Activity (%) (esterase enzyme [2]): 45.1 ± 0.3%

[Mg+2] [mg^2+]
Metal tolerance, Mohamed et al, 2013 [4]: 91 | Metal tolerance, Zhang et al, 2017 [5]: 97 | Metal tolerance, Castilla et al, 2017 [6]: 160 | Metal tolerance, Glogauer et al, 2011 [7]: 65 | Metal tolerance, This study (esterase enzyme [3]): 130

[Al+3] [Al^3+]
Metal tolerance, Glogauer et al, 2011 [7]: 45 | Metal tolerance, This study (esterase enzyme [3]): 91

Tween-80
Activity (%) (1 mM inh.) (esterase enzyme [8]; 1 mM inh.): 107.2 ± 7.9% | Activity (%) (5 mM inh.) (esterase enzyme [8]; 5 mM inh.): 80.7 ± 2.2%

[Cl-].[Cl-].[Co+2] [CoCl2]
Activity (%) (1 mM metal) (esterase enzyme [3]): 112.7 ± 3.4% | Activity (%) (5 mM metal) (esterase enzyme [3]): 3.6 ± 1.0%

[Co+2] [Co^2+]
Metal tolerance, Mohamed et al, 2013 [4]: 104 | Metal tolerance, Zhang et al, 2017 [5]: 85 | Metal tolerance, Castilla et al, 2017 [6]: 50 | Metal tolerance, Glogauer et al, 2011 [7]: 54 | Metal tolerance, This study (esterase enzyme [3]): 113

O=S(=O)([O-])[O-].[Mn+2] [MnSO4]
Activity (%) (1 mM metal) (esterase enzyme [3]; 1 mM metal): 130.4 ± 0.4% | Activity (%) (5 mM metal) (esterase enzyme [3]; 5 mM metal): 110.3 ± 3.5%

CO [Methanol, methanol]
Effect of solutions on stability, Activity (%) 15% Solution (esterase enzyme [1]): 108.5 ± 0.2% | Effect of solutions on stability, Activity (%) 30% Solution (esterase enzyme [1]): 99.4 ± 6.6% | Effect of solutions on activity, Activity (%) (esterase enzyme [2]): 81.1 ± 1.1% | Effect of solutions on activity, Activity (%) (esterase enzyme [2]; listed as methanol): 81%

butanol
Effect of solutions on stability, Activity (%) 15% Solution (esterase enzyme [1]): 97.1 ± 3.3% | Effect of solutions on stability, Activity (%) 30% Solution (esterase enzyme [1]): 104.9 ± 2.4% | Effect of solutions on activity, Activity (%) (esterase enzyme [2]): 3.3 ± 3.3%

CCCCCC [Hexane, hexane]
Effect of solutions on stability, Activity (%) 15% Solution (esterase enzyme [1]): 113.6 ± 8.5% | Effect of solutions on stability, Activity (%) 30% Solution (esterase enzyme [1]): 100.2 ± 4.9% | Effect of solutions on activity, Activity (%) (esterase enzyme [2]): 22.6 ± 4.9%

CC(C)=O [Acetone, acetone]
Effect of solutions on stability, Activity (%) 15% Solution (esterase enzyme [1]): 113.7 ± 2.5% | Effect of solutions on stability, Activity (%) 30% Solution (esterase enzyme [1]): 85.2 ± 5.6% | Effect of solutions on activity, Activity (%) (esterase enzyme [2]): 36 ± 4.9%

ClC(Cl)Cl [Chloroform, chloroform]
Effect of solutions on stability, Activity (%) 15% Solution (esterase enzyme [1]): 97.9 ± 1.4% | Effect of solutions on stability, Activity (%) 30% Solution (esterase enzyme [1]): 100.2 ± 5.6% | Effect of solutions on activity, Activity (%) (esterase enzyme [2]): 5.1 ± 0.8%

O=S(=O)([O-])[O-].O=S(=O)([O-])[O-].O=S(=O)([O-])[O-].[Al+3].[Al+3] [Al2SO4]
Activity (%) (1 mM metal) (esterase enzyme [3]; 1 mM metal): 91.2 ± 9.8% | Activity (%) (5 mM metal) (esterase enzyme [3]; 5 mM metal): 0.0%

C[S+](C)[O-] [DMSO, dimethyl sulphoxide]
Effect of solutions on stability, Activity (%) 15% Solution (esterase enzyme [1]): 106.1 ± 0.9% | Effect of solutions on stability, Activity (%) 30% Solution (esterase enzyme [1]): 102.2 ± 4.8% | Effect of solutions on activity, Activity (%) (esterase enzyme [2]): 92%

[Fe+2] [Fe^2+]
Metal tolerance, Zhang et al, 2017 [5]: 85 | Metal tolerance, Castilla et al, 2017 [6]: 55 | Metal tolerance, Glogauer et al, 2011 [7]: 33 | Metal tolerance, This study (esterase enzyme [3]): 116

[Ag+] [Ag^+]
Metal tolerance, Glogauer et al, 2011 [7]: 8 | Metal tolerance, This study (esterase enzyme [3]): 32

Triton X-100
Activity (%) (1 mM inh.) (esterase enzyme [8]; 1 mM inh.): 105.3 ± 2.4% | Activity (%) (5 mM inh.) (esterase enzyme [8]; 5 mM inh.): 87.7 ± 3.2%

O=C(O)CN(CCN(CC(=O)O)CC(=O)O)CC(=O)O [EDTA, ethylene diamine tetraacetic acid]
Activity (%) (1 mM inh.) (esterase enzyme [8]; 1 mM inh.): 89.6 ± 1.7% | Activity (%) (5 mM inh.) (esterase enzyme [8]; 5 mM inh.): 66.5 ± 1.2%

O=S(=O)(F)Cc1ccccc1 [PMSF, phenylmethanesulfonyl fluoride]
Activity (%) (1 mM inh.) (esterase enzyme [8]; 1 mM inh.): 1.3 ± 0.1% | Activity (%) (5 mM inh.) (esterase enzyme [8]; 5 mM inh.): 0.2%

[Cl-].[K+] [KCl]
Activity (%) (1 mM metal) (esterase enzyme [3]; 1 mM metal): 127.9 ± 3.9% | Activity (%) (5 mM metal) (esterase enzyme [3]; 5 mM metal): 98.2 ± 3.4%

O=C(O)CN(CCOCCOCCN(CC(=O)O)CC(=O)O)CC(=O)O [EGTA, ethylene glycol tetraacetic acid]
Activity (%) (1 mM inh.) (esterase enzyme [8]): 100.2 ± 2.1% | Activity (%) (5 mM inh.) (esterase enzyme [8]): 87.6 ± 3.9%

NP-40
Activity (%) (1 mM inh.) (esterase enzyme [8]; 1 mM inh.): 101.9 ± 6.8% | Activity (%) (5 mM inh.) (esterase enzyme [8]; 5 mM inh.): 89.1 ± 1.5%

[Cl][Ni][Cl] [NiCl2]
Activity (%) (1 mM metal) (esterase enzyme [3]; 1 mM metal): 110.4 ± 6.1% | Activity (%) (5 mM metal) (esterase enzyme [3]; 5 mM metal): 0.5%

1-propanol
Effect of solutions on stability, Activity (%) 15% Solution (esterase enzyme [1]): 85.7 ± 2.6% | Effect of solutions on stability, Activity (%) 30% Solution (esterase enzyme [1]): 23.3 ± 5.4% | Effect of solutions on activity, Activity (%) (esterase enzyme [2]): 2.6 ± 2.4%

CCCCCCCCCCCCOS(=O)(=O)[O-].[Na+] [SDS, sodium dodecyl sulphate]
Activity (%) (1 mM inh.) (esterase enzyme [8]; 1 mM inh.): 85.6 ± 2.9% | Activity (%) (5 mM inh.) (esterase enzyme [8]; 5 mM inh.): 5.0 ± 0.8%

[Ca+2] [Ca^2+]
Metal tolerance, Mohamed et al, 2013 [4]: 95 | Metal tolerance, Zhang et al, 2017 [5]: 95 | Metal tolerance, Castilla et al, 2017 [6]: 110 | Metal tolerance, Glogauer et al, 2011 [7]: 73 | Metal tolerance, This study (esterase enzyme [3]): 130

[Cu+2] [Cu^2+]
Metal tolerance, Mohamed et al, 2013 [4]: 95 | Metal tolerance, Zhang et al, 2017 [5]: 82 | Metal tolerance, Castilla et al, 2017 [6]: 60 | Metal tolerance, This study (esterase enzyme [3]): 118

CCCCCCCCCCCCCCCC[N+](C)(C)C.[Br-] [CTAB, cetrimonium bromide]
Activity (%) (1 mM inh.) (esterase enzyme [8]; 1 mM inh.): 91 ± 6.6% | Activity (%) (5 mM inh.) (esterase enzyme [8]; 5 mM inh.): 1.3 ± 0.3%

From patent US20210309978A1, “POLYNUCLEOTIDE SEQUENCE ENCODING A LOCAL SOURCED NOVEL ESTERASE” (ISTANBUL TEKNIK UNIVERSITESI, priority 2018, published 2021)
